# According to ChEMBL document CHEMBL1139098, “3H-[1,2,4]-Triazolo[5,1-i]purin-5-amine derivatives as adenosine A2A antagonists” (Bioorg Med Chem Lett, 2007):
# Tests used:
# Adenosine receptor A2a = Adenosine receptor A2a (Homo sapiens, UniProt P29274); experiment: Antagonist activity at human adenosine A2A receptor; assay type: functional
# Homo sapiens = species on record: Homo sapiens; experiment: Selectivity for human adenosine A2A receptor over human adenosine A1 receptor
# Rattus norvegicus [1] = experiment: Effect on rat catalepsy model at 3 mg/kg, po after 4 hrs; assay type: functional
# Rattus norvegicus [2] = experiment: Effect on rat catalepsy model at 3 mg/kg, po after 1 hr; assay type: functional
# Rattus norvegicus [3] = experiment: Effect on rat catalepsy model at 1 mg/kg, po after 4 hrs; assay type: functional
# Rattus norvegicus [4] = experiment: Effect on rat catalepsy model at 1 mg/kg, po after 1 hr; assay type: functional
# [5] = AUC in rat catalepsy model at 3.0 mg/kg, po; assay type: ADME, organism-based; set-up: dose 3 mg/kg, route oral; conditions: in vivo
# Sequence of Adenosine receptor A2a (P29274 whole entry): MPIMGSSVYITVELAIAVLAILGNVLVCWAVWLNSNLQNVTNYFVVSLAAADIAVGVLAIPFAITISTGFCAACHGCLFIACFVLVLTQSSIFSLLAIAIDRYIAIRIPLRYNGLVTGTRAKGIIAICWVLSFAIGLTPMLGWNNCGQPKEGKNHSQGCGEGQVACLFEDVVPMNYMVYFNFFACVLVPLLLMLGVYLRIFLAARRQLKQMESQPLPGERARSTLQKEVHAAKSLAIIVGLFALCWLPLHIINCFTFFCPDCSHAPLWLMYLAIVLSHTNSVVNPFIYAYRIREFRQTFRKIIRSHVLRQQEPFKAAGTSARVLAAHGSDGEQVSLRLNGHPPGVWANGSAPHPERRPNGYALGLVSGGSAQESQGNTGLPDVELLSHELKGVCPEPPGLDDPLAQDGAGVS
Structure (SMILES),Ki (Adenosine receptor A2a) [nM],Selectivity ratio (Homo sapiens),other results
Nc1nc2c(ncn2Cc2ccccc2Cl)c2nc(-c3ccco3)nn12,1.7,9,
COCCOc1ccc(N2CCN(CCn3cnc4c3nc(N)n3nc(-c5ccccn5)nc43)CC2)cc1,12.6,108,
Nc1nc2c(ncn2Cc2ccccc2Br)c2nc(-c3ccco3)nn12,4.6,7,
Nc1nc2c(ncn2CCN2CCN(c3ncc(F)cn3)CC2)c2nc(-c3ccco3)nn12,1.4,378,
COc1ccc(N2CCN(CCn3cnc4c3nc(N)n3nc(-c5ccco5)nc43)CC2)cc1,0.1,1700,
Nc1nc2c(ncn2Cc2ccccc2C(F)(F)F)c2nc(-c3ccco3)nn12,4.6,30,
COCCOc1ccc(N2CCN(CCn3cnc4c3nc(N)n3nc(-c5ccccc5C(F)(F)F)nc43)CC2)cc1,10,181,
COCCOc1ccc(N2CCN(CCn3cnc4c3nc(N)n3nc(-c5ccccc5C)nc43)CC2)cc1,20.5,76,
Nc1nc2c(ncn2CCc2ccccc2)c2nc(-c3ccco3)nn12,4.1,33,
Nc1nc2c(ncn2Cc2ccccc2)c2nc(-c3ccco3)nn12,1.5,17,
COCCOc1ccc(N2CCN(CCn3cnc4c3nc(N)n3nc(-c5cccc(F)c5)nc43)CC2)cc1,2,83,
COCCOc1ccc(N2CCN(CCn3cnc4c3nc(N)n3nc(-c5ccccc5F)nc43)CC2)cc1,9.3,15,
COCCOc1ccc(N2CCN(CCn3cnc4c3nc(N)n3nc(-c5ccccc5)nc43)CC2)cc1,3.7,91,
Nc1nc2c(ncn2CCN2CCN(c3ccc(Cl)cn3)CC2)c2nc(-c3ccco3)nn12,0.9,333,
COCCOc1ccc(N2CCN(CCn3cnc4c3nc(N)n3nc(-c5cccc[n+]5[O-])nc43)CC2)cc1,89.7,17,
CCCn1cnc2c1nc(N)n1nc(-c3ccco3)nc21,5.9,50,
COCCOc1ccc(C2CCN(CCn3cnc4c3nc(N)n3nc(-c5ccco5)nc43)CC2)cc1,0.7,519,
Nc1nc2c(ncn2CCN2CCN(c3nccs3)CC2)c2nc(-c3ccco3)nn12,1.7,138,

# The next lines start with results.
Ki (Adenosine receptor A2a) [nM],Selectivity ratio (Homo sapiens),Structure (SMILES),other results
0.3,403,Nc1nc2c(ncn2CCN2CCN(c3ccc(Cl)cc3F)CC2)c2nc(-c3ccco3)nn12,
0.4,371,Nc1nc2c(ncn2CCN2CCN(c3cccc(Cl)c3)CC2)c2nc(-c3ccco3)nn12,
0.8,517,COCCOc1ccc(N2CCN(CCn3cnc4c3nc(N)n3nc(-c5ccco5)nc43)CC2)c(F)c1,
0.9,196,Nc1nc2c(ncn2CCN2CCC(c3ccc(F)cc3)CC2)c2nc(-c3ccco3)nn12,
0.9,669,COCCOc1ccc(N2CCN(CCn3cnc4c3nc(N)n3nc(-c5ccco5)nc43)CC2)cc1,Activity (Rattus norvegicus [1]): 50%; Activity (Rattus norvegicus [2]): 80%; Activity (Rattus norvegicus [3]): 50%; Activity (Rattus norvegicus [4]): 55%; AUC [5]: 524 ng·h/mL
0.4,218,COCCOc1ccc(N2CCN(CCn3cnc4c3nc(N)n3nc(-c5ccco5)nc43)CC2)c(C(F)(F)F)c1,
1,162,Cc1ccc(N2CCN(CCn3cnc4c3nc(N)n3nc(-c5ccco5)nc43)CC2)nc1,
0.7,88,Nc1nc2c(ncn2CCN2CCN(c3ccc(F)cc3F)CC2)c2nc(-c3ccco3)nn12,
1.7,182,Nc1nc2c(ncn2CCN2CCN(c3ccccc3)CC2)c2nc(-c3ccco3)nn12,
6.3,37,Nc1nc2c(ncn2CCN2CCOCC2)c2nc(-c3ccco3)nn12,
